Measured values: US20200138827A1, “SMALL MOLECULE MODULATORS OF HUMAN STING” (Curadev Pharma Limited, priority 2017, published 2020)
Like-named read-outs stand apart in the source and are kept apart here.

Tests used:
NF-κB pathway = assay: Reporter gene expression assay in THP1-Dual cells, NFkB axis (secreted SEAP); format: cell-based, human; conditions: read-out: THP-NFKB activity (EC50 range)
Experimental: (§1) THP1-Dual™ cells (Invivogen) were derived from the human THP-1 monocyte cell line by stable integration of two inducible reporter constructs. As a result, THP1-Dual™ cells allow the simultaneous study of the NF-κB pathway, by monitoring the activity of secreted SEAP, and the IRF pathway, by assessing the activity of a secreted luciferase (Lucia). […] THP1-Dual™ cells were seeded in 384-well plates in growth medium and stimulated with novel compounds. After […] of stimulation supernatant were removed and reporter proteins were readily measured in the cell culture supernatant using QUANTI-Blue™ (Invivogen), a SEAP detection reagent, and QUANTI-Luc™ (Invivogen), a luciferase detection reagent on a Spectramax i3X luminometer.

WT/R232 STING protein = target: T1, WT/R232 STING protein (Homo sapiens, UniProt Q86WV6, H232R); assay: Luciferase reporter assay in HEK293T-hSTING-Luciferase cells, WT/R232; format: cell-based; conditions: 20 hr stimulation, read-out: R232 Activity (EC50 range)
T1 construct: host or cells: HEK293T
How it was run: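 […], read by luminescence from supernatant after 20 h compound stimulation. Cells: clonally selected HEK293T (5×10^5/well) stably carrying WT/R232 human STING and a luciferase reporter under five tandem ISREs fused to an ISG54 minimal promoter.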

hSTING(HAQ) = target: T2, hSTING(HAQ) (Homo sapiens, UniProt Q86WV6, G230A/H232R/R293Q/R71H); assay: Luciferase reporter assay in HEK293T-hSTING-Luciferase cells, HAQ polymorph; format: cell-based; conditions: 20 hr stimulation, read-out: HAQ activity (EC50 range)
T2 construct: host or cells: HEK293T
Source text: (§2) • a) Stable STING expressing cells—Stable HEK293T STING-expressing cell lines were generated using plasmids purchased from Invivogen, Calif., USA, that contain STING cDNA cloned into the pUNO-1 vector under hEF1-HTLV promoter and containing the Blasticidin selection cassette. The plasmids hSTING(R232), hSTING(H232), hSTING(HAQ) were directly procured from Invivogen while hSTING (AQ) and hSTING (Q) were derived from hSTING(HAQ) and hSTING (R232) plasmids respectively by using a PCR based site directed mutagenesis method. These vectors were individually transfected into HEK293T cells using Lipofectamine (Invitrogen) and transfected cells were selected under Blasticidin selection. These transfected cells were further subjected to clonal selection using the limiting dilution method to obtain clonally pure populations of HEK cells transfected with each of the above mentioned human STING variants. Only those clones were selected in which ligand independent activation of STING was minimal. • b) Stable Luciferase reporter gene expressing cells—Stable HEK293T Luciferase reporter gene expressing cell lines were generated using pCDNA4 plasmids under an IRF-inducible promoter. This promoter is comprised of five tandem interferon-stimulated response elements (ISRE) fused to an ISG54 minimal promoter. This vector was transfected into HEK293T cells using Lipofectamine (Invitrogen) and transfected cells were selected under Zeocin selection. These transfected cells were further subjected to clonal selection using the limiting dilution method to obtain clonally pure populations of HEK cells transfected the Luciferase reporter construct. Only those clones were selected in which ligand independent induction of luciferase was minimal.
(§3) 5×10^5 clonally selected HEK293T-hSTING-Luciferase cells were seeded in 384-well plates in growth medium and stimulated with novel compounds. After 20 hr of stimulation supernatant were removed and secretary reporter gene activity were measured using the Quanti-Luc detection system (Invivogen) on a Spectramax i3X luminometer.
(§4) The 5 major polymorphisms of human STING are shown in FIG. 1, with their prevalence in human populations indicated.

IRF pathway = assay: Reporter gene expression assay in THP1-Dual cells, IRF axis (secreted Lucia luciferase); format: cell-based, human; conditions: read-out: THP-IRF activity (EC50 range)
Experimental: as §1

hSTING(H232) = target: T3, hSTING(H232) (Homo sapiens, UniProt Q86WV6); assay: Luciferase reporter assay in HEK293T-hSTING-Luciferase cells, H232 polymorph; format: cell-based; conditions: 20 hr stimulation, read-out: H232 activity (EC50 range)
T3 construct: host or cells: HEK293T
Source text: as §2, §3, §4

T1 sequence (Q86WV6 whole entry H232R): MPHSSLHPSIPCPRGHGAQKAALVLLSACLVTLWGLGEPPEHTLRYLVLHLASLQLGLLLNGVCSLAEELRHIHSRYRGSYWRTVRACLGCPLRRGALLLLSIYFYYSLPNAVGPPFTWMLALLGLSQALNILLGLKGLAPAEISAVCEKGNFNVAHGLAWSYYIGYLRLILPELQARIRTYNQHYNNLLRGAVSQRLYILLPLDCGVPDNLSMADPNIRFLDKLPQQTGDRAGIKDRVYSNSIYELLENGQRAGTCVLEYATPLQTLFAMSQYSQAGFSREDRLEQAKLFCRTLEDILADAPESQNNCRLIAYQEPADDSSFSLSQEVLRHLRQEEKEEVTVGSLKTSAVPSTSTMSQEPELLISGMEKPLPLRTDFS
T2 sequence (Q86WV6 whole entry R71H/G230A/H232R/R293Q): as the sequence (Q86WV6 whole entry H232R) above, with R71H, G230A, R293Q counted along it
T3 sequence (Q86WV6 whole entry): as the sequence (Q86WV6 whole entry H232R) above, with R232H counted along it

| Compound | EC50 (NF-κB pathway; Homo sapiens, THP1-Dual) | EC50 (WT/R232 STING protein) | EC50 (hSTING(HAQ)) | EC50 (IRF pathway; Homo sapiens, THP1-Dual) | EC50 (hSTING(H232)) | EC50 (IRF pathway) | EC50 (NF-κB pathway) |
| --- | --- | --- | --- | --- | --- | --- | --- |
| O=C(NCc1c(F)cccc1F)c1ccc2c(c1)N(Cc1c(F)cccc1Cl)C(=O)CS2 [Example 31, 4-(2-chloro-6-fluorobenzyl)-N-(2,6-difluorobenzyl)-3-oxo-3,4-dihydro-2H-benzo[b-1,4]thiazine 6-carboxamide] | > 10 µM | < 1 µM | 1 to 10 µM | > 10 µM | < 1 µM |  |  |
| O=C(NCc1ccc(F)cc1F)c1ccc2c(c1)N(Cc1c(F)cccc1Cl)C(=O)CS2 [Example 34, 4-(2-chloro-6-fluorobenzyl)-N-(2,4-difluorobenzyl)-3-oxo-3,4-dihydro-2H-benzo[b-1,4]thiazine-6-carboxamide] | > 10 µM | < 1 µM | 1 to 10 µM | > 10 µM | < 1 µM |  |  |
| Cc1cccc(CNC(=O)c2ccc3c(c2)N(Cc2c(F)cccc2Cl)C(=O)CS3)c1 [Example 37, 4-(2-chloro-6-fluorobenzyl)-N-(3-methylbenzyl)-3-oxo-3,4-dihydro-2H-benzo[b-1,4]thiazine-6-carboxamide] | > 10 µM | < 1 µM | > 10 µM | > 10 µM | 1 to 10 µM |  |  |
| O=C(NCc1c(F)cc(F)cc1F)c1ccc2c(c1)N(Cc1ccncc1)C(=O)CS2 [Example 39, 3-oxo-4-(pyridin-4-ylmethyl)-N-(2,4,6-trifluoro-benzyl)-3,4-dihydro-2H-benzo[b-1,4]thiazine-6-carboxamide] | > 10 µM | 1 to 10 µM | 1 to 10 µM | > 10 µM | 1 to 10 µM |  |  |
| O=C(NCc1cc2ccccc2o1)c1ccc2c(c1)N(Cc1c(F)cccc1Cl)C(=O)CS2 [Example 40, N-(benzofuran-2-ylmethyl)-4-(2-chloro-6-fluorobenzyl)-3-oxo-3,4-dihydro-2H-benzo[b-1,4]thiazine-6-carboxamide] | 1 to 10 µM | < 1 µM | 1 to 10 µM | 1 to 10 µM | 1 to 10 µM |  |  |
| O=C(NCc1cc2ccccc2o1)c1ccc2c(c1)N(Cc1ccccc1)C(=O)CS2 [Example 69, N-(benzofuran-2-ylmethyl)-4-benzyl-3-oxo-3,4-dihydro-2H-benzo[b-1,4]thiazine-6-carboxamide] | > 10 µM | 1 to 10 µM | 1 to 10 µM | > 10 µM | 1 to 10 µM |  |  |
| O=C(NCc1ccco1)c1ccc2c(c1)N(Cc1cccc(F)c1F)C(=O)CS2 [Example 82, 4-(2,3-difluorobenzyl)-N-(furan-2-ylmethyl)-3-oxo-3,4-dihydro-2H-benzo[b-1,4]thiazine-6-carboxamide] | > 10 µM | 1 to 10 µM | 1 to 10 µM | > 10 µM | 1 to 10 µM |  |  |
| Cc1cc(CN2C(=O)CSc3ccc(C(=O)NCc4ccco4)cc32)cc(C(F)(F)F)c1 [Example 83, N-(furan-2-ylmethyl)-4-(3-methyl-5-(trifluoromethyl)benzyl)-3-oxo-3,4-dihydro-2H-benzo[b-1,4]thiazine-6-carboxamide] | > 10 µM | 1 to 10 µM | > 10 µM | > 10 µM | > 10 µM |  |  |
| O=C(NCc1ccco1)c1ccc2c(c1)N(Cc1cc(F)cc(F)c1)C(=O)CS2 [Example 87, 4-(3,5-difluorobenzyl)-N-(furan-2-ylmethyl)-3-oxo-3,4-dihydro-2H-benzo[b][1,4] thiazine-6-carboxamide] | > 10 µM | < 1 µM | > 10 µM | > 10 µM | 1 to 10 µM |  |  |
| CC1Sc2ccc(C(=O)NCc3c(F)cc(F)cc3F)cc2N(Cc2ccccc2F)C1=O (stereo not shown) [Example 140, 4-(2-fluorobenzyl)-2-methyl-3-oxo-N-(2,4,6-trifluorobenzyl)-3,4-dihydro-2H-benzo[b-1,4]thiazine-6-carboxamide] | 1 to 10 µM | < 1 µM |  | 1 to 10 µM |  |  |  |
| CC1Sc2ccc(C(=O)NCc3c(F)cc(F)cc3F)cc2N(Cc2ccccc2F)C1=O (stereo not shown) [Example 142, 4-(2-fluorobenzyl)-2-methyl-3-oxo-N-(2,4,6-trifluorobenzyl)-3,4-dihydro-2H-benzo[b-1,4]thiazine-6-carboxamide] |  |  | < 1 µM |  | < 1 µM | 1 to 10 µM |  |
| CC1(CCl)Sc2ccc(C(=O)NCc3ccc(F)cc3F)cc2N(Cc2c(F)cccc2Cl)C1=O (stereo not shown) [Example 150, 4-(2-chloro-6-fluorobenzyl)-2-(chloromethyl)-N-(2,4-difluorobenzyl)-2-methyl-3-oxo-3,4-dihydro-2H-benzo[b][1,4] thiazine-6-carboxamide] |  |  |  |  |  | 1 to 10 µM | 1 to 10 µM |
| O=C(NCc1ccco1)c1ccc2c(c1)N(Cc1c(F)cccc1Cl)C(=O)CC2 [Example 268, 1-(2-chloro-6-fluorobenzyl)-N-(furan-2-ylmethyl)-2-oxo-1,2,3,4-tetrahydroquinoline-7-carboxamide] |  | > 10 µM |  |  |  |  |  |
| O=C(NCc1cc2ccncc2o1)c1ccc2c(c1)N(Cc1cc(F)cc(F)c1)C(=O)CC2 [Example 272, 1-(3,5-difluorobenzyl)-N-(furo[2,3-c]pyridin-2-ylmethyl)-2-oxo-1,2,3,4-tetrahydroquinoline-7-carboxamide] |  | > 10 µM |  |  |  |  |  |
| O=C(NCc1cc2cnccc2o1)c1ccc2c(c1)N(Cc1cc(F)cc(F)c1)C(=O)CC2 [Example 273, 1-(3,5-difluorobenzyl)-N-(furo[3,2-c]pyridin-2-ylmethyl)-2-oxo-1,2,3,4-tetrahydroquinoline-7-carboxamide] |  | > 10 µM |  |  |  |  |  |

Continued, in another order:

| EC50 (NF-κB pathway; Homo sapiens, THP1-Dual) | EC50 (WT/R232 STING protein) | EC50 (hSTING(HAQ)) | EC50 (IRF pathway; Homo sapiens, THP1-Dual) | EC50 (hSTING(H232)) | Compound | EC50 (IRF pathway) | EC50 (NF-κB pathway) |
| --- | --- | --- | --- | --- | --- | --- | --- |
|  | > 10 µM |  |  |  | O=C(NCc1cc2cccnc2o1)c1ccc2c(c1)N(Cc1cc(F)cc(F)c1)C(=O)CC2 [Example 274, 1-(3,5-difluorobenzyl)-N-(furo[2,3-b]pyridin-2-ylmethyl)-2-oxo-1,2,3,4-tetrahydroquinoline-7-carboxamide] |  |  |
|  | > 10 µM |  |  |  | O=C(NCc1cc2ncccc2o1)c1ccc2c(c1)N(Cc1cc(F)cc(F)c1)C(=O)CC2 [Example 275, 1-(3,5-difluorobenzyl)-N-(furo[3,2-b]pyridin-2-ylmethyl)-2-oxo-1,2,3,4-tetrahydroquinoline-7-carboxamide] |  |  |
|  | 1 to 10 µM |  |  |  | O=C(NCc1c(F)cc(F)cc1F)c1cnc2c(c1)N(Cc1cc(F)cc(F)c1)C(=O)CC2 [Example 276, 5-(3,5-Difluorobenzyl)-6-oxo-N-(2,4,6-trifluorobenzyl)-5,6,7,8-tetrahydro-1,5-naphthyridine-3-carboxamide] |  |  |
|  | 1 to 10 µM |  |  |  | O=C(NCc1ccc(F)cc1F)c1cnc2c(c1)N(Cc1cc(F)cc(F)c1)C(=O)CC2 [Example 277, N-(2,4-difluorobenzyl)-5-(3,5-difluorobenzyl)-6-oxo-5,6,7,8-tetrahydro-1,5-naphthyridine-3-carboxamide] |  |  |
|  | > 10 µM |  |  |  | O=C(NCc1cc2ccccc2o1)c1cnc2c(c1)N(Cc1cc(F)cc(F)c1)C(=O)CC2 [Example 278, N-(benzofuran-2-ylmethyl)-5-(3,5-difluorobenzyl)-6-oxo-5,6,7,8-tetrahydro-1,5-naphthyridine-3-carboxamide] |  |  |
|  | > 10 µM |  |  |  | O=C(NCc1ccc(F)cc1F)c1cnc2c(c1)N(Cc1ccc(F)cc1)C(=O)CC2 [Example 280, N-(2,4-difluorobenzyl)-5-(4-fluorobenzyl)-6-oxo-5,6,7,8-tetrahydro-1,5-naphthyridine-3-carboxamide] |  |  |
|  | 1 to 10 µM |  |  |  | O=C(NCc1ccc(F)cc1F)c1ccc2c(n1)N(Cc1ccc(F)cc1)C(=O)CC2 [Example 282, N-(2,4-difluorobenzyl)-8-(4-fluorobenzyl)-7-oxo-5,6,7,8-tetrahydro-1,8-naphthyridine-2-carboxamide] |  |  |
|  | 1 to 10 µM |  |  |  | O=C(NCc1c(F)cc(F)cc1F)c1ccc2c(n1)N(Cc1cc(F)cc(F)c1)C(=O)CC2 [Example 283, (3,5-difluorobenzyl)-7-oxo-N-(2,4,6-trifluorobenzyl)-5,6,7,8-tetrahydro-1,8-naphthyridine-2-carboxamide] |  |  |
